Data reported in publication PMC12073402, “A Selective MAP3K1 Inhibitor Facilitates Discovery of NPM1 as a Member of the Network” (Molecules, 2025).

What was measured:
Assay in all cases: KiNativ kinome profiling in PANC-1 lysate
Format in all cases: binding
AKT1 = target: T1, AKT1 (Homo sapiens, UniProt P31749); conditions: ATP Loop
T1 construct: endogenous in cells; host or cells: PANC-1 cell lysate
Text: (§1) To assess target engagement and selectivity, we opted to conduct a kinome screen (KiNativ) in PANC-1 cell lysates. This chemical proteomics (chemoproteomics) methodology allows for the evaluation of small-molecule binding to protein kinases in native systems such as cell lysates. KiNativ utilizes a soluble chemical probe comprising ATP linked to biotin through an acyl-phosphate bond. The probe covalently modifies conserved lysine residues found in the ATP binding site of essentially all protein kinases (Figure 2A). To profile a kinase inhibitor, cell lysates are treated with a vehicle control or inhibitor prior to addition of the desthiobiotin ATP probe. The ATP probe occupies the ATP binding site in the kinase, which enables the conserved lysines to be biotinylated. […] The cell lysates are digested with a protease (trypsin), biotinylated peptides are affinity-enriched on streptavidin beads, and the labeled peptides are analyzed by liquid chromatography–tandem MS (Figure 2B). If an inhibitor binds to a kinase, it competes with the ATP, thus resulting in a loss of that kinase-associated peptide signal, allowing for the quantitative measurement of inhibitor binding. Unlike recombinant enzyme assays, KiNativ IC50 values are a direct measure of active site binding instead of enzymatic activity.
(§2) Kinome profiling quantified the activity of 51-106 against >300 kinases in the PANC-1 cells. The results summarized in Figure 2C are the average of duplicate control and duplicate treated samples with 5 μM of 51-106 or DMSO.
(§3) KiNativ assay with 51-106.
(§4) ATP Loop: ATP binding loop
(§5) Activation Loop: Activation loop
(§6) ATP: ATP site in non-canonical kinase (e.g. lipid kinase)
(§7) Protein Kinase Domain: Other lysine within kinase domain, possibly not in ATP binding site
(§8) Other: Labeling of residue outside of the protein kinase domain, possibly not in ATP binding site
(§9) No change. NB = No Binding (≤ 0)
(§10) >100% increase in MS signal (>2 fold increase)
(§11) Data points inhibited […] & not considered significant are left uncolored
(§12) Note: This KiNativ dataset is the result of an analysis of duplicate treated samples and control samples.
(§13) The % changes in MS signals being reported are statistically significant (Student T -test score < 0.04)

MAP2K5 = target: T2, MAP2K5 (Homo sapiens, UniProt Q13163); conditions: Lys2
T2 construct: endogenous in cells; host or cells: PANC-1 cell lysate
Text: as §1, §2, §3, §4, §5, §6, §7, §8, §9, §10, §11, §12, §13

NuaK2 = target: T3, NuaK2 (Homo sapiens, UniProt Q9H093); conditions: Lys1
T3 construct: endogenous in cells; host or cells: PANC-1 cell lysate
T3 sequence (Q9H093 whole entry): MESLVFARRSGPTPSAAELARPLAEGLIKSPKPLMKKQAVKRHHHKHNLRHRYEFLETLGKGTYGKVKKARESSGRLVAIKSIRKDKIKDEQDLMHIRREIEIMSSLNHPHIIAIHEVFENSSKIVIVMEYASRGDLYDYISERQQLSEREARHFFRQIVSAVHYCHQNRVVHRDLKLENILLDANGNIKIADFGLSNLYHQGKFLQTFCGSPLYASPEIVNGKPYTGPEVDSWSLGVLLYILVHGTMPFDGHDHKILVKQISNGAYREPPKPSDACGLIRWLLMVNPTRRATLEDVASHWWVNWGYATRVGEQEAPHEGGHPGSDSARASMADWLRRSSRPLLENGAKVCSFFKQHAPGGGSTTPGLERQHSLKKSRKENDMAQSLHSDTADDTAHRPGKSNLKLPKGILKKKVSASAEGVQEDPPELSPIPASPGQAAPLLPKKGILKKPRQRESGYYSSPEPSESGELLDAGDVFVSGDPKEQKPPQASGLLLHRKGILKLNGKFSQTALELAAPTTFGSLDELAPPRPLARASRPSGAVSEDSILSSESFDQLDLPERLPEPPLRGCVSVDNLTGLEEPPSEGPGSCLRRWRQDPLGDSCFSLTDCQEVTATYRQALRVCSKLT
Text: as §1, §2, §3, §4, §5, §6, §7, §8, §9, §10, §11, §12, §13

ULK3 = target: T4, ULK3 (Homo sapiens, UniProt Q6PHR2); conditions: Lys1
T4 construct: endogenous in cells; host or cells: PANC-1 cell lysate
T4 sequence (Q6PHR2 whole entry): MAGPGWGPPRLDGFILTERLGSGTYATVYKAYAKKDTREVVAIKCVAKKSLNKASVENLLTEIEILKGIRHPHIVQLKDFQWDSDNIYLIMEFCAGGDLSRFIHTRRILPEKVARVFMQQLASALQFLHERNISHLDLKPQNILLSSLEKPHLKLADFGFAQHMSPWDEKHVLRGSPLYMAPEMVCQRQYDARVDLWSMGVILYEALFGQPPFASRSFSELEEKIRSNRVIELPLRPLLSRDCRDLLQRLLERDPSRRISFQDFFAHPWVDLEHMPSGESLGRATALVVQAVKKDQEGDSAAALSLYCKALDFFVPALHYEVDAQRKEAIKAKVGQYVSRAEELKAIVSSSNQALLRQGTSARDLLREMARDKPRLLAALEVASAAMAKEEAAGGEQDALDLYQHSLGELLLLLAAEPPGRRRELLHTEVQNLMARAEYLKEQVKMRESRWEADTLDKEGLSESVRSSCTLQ
Text: as §1, §2, §3, §4, §5, §6, §7, §8, §9, §10, §11, §12, §13

NEK8 = target: T5, NEK8 (Homo sapiens, UniProt Q86SG6); conditions: Lys2
T5 construct: endogenous in cells; host or cells: PANC-1 cell lysate
Text: as §1, §2, §3, §4, §5, §6, §7, §8, §9, §10, §11, §12, §13

STLK5 = target: T6, STLK5 (Homo sapiens, UniProt Q7RTN6)
T6 construct: endogenous in cells; host or cells: PANC-1 cell lysate
T6 sequence (Q7RTN6 whole entry): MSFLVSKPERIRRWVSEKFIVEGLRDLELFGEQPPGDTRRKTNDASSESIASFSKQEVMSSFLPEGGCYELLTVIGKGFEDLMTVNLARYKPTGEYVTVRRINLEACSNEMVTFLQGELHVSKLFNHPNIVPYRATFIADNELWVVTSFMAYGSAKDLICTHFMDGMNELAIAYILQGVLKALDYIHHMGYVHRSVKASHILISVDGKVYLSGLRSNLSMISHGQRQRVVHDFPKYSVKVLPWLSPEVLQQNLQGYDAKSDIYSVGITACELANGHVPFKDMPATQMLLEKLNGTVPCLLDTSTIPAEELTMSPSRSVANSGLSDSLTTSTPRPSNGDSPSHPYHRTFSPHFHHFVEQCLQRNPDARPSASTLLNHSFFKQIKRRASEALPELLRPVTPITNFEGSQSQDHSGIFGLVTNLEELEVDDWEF
Text: as §1, §2, §3, §4, §5, §6, §7, §8, §9, §10, §11, §12, §13

Wee1 = target: T7, Wee1 (Homo sapiens, UniProt P30291); conditions: Lys2
T7 construct: endogenous in cells; host or cells: PANC-1 cell lysate
Text: as §1, §2, §3, §4, §5, §6, §7, §8, §9, §10, §11, §12, §13

FER = target: T8, FER (Homo sapiens, UniProt P16591)
T8 construct: endogenous in cells; host or cells: PANC-1 lysate
T8 sequence (P16591 whole entry): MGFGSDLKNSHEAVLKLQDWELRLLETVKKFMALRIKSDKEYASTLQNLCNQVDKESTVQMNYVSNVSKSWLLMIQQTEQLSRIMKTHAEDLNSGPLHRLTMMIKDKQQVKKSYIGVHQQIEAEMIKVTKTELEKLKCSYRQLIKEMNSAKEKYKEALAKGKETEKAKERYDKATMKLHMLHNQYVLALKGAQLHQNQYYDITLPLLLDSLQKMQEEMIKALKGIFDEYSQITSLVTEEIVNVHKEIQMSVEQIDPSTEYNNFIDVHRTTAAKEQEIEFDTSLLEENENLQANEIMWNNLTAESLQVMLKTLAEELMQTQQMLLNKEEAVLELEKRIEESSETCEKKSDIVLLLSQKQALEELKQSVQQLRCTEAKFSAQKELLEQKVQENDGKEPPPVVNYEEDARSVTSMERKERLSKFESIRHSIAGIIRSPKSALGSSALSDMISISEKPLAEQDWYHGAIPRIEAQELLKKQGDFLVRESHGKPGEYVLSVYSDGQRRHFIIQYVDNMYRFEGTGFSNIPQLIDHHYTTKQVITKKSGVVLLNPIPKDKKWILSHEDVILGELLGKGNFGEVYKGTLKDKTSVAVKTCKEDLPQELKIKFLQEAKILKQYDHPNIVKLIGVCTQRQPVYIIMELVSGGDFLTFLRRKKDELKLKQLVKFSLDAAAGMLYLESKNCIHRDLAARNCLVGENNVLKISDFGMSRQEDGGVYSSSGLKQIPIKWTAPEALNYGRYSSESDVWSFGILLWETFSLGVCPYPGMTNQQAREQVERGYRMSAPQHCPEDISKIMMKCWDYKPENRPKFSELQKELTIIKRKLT
Text: as §1, §2, §3, §4, §5, §6, §7, §8, §9, §10, §11, §12, §13

MARK1, MARK2 = conditions: 5 µM; Lys1; EVAVKIIDK
Text: as §1, §2, §3, §4, §5, §6, §7, §8, §9, §10, §11, §12, §13

CDK9 = target: T9, CDK9 (Homo sapiens, UniProt P50750)
T9 construct: endogenous in cells; host or cells: PANC-1 cell lysate
T9 sequence (P50750 whole entry): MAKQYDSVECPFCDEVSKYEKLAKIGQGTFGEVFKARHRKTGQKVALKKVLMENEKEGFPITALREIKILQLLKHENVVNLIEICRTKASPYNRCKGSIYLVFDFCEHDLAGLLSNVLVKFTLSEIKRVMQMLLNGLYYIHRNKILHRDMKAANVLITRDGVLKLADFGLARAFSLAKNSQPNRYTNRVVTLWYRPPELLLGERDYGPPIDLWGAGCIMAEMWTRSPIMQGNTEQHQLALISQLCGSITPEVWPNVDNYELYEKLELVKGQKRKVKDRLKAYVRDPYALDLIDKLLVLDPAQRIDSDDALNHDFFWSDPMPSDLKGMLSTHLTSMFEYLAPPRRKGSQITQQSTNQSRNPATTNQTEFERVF
Text: as §1, §2, §3, §4, §5, §6, §7, §8, §9, §10, §11, §12, §13

MAPKAPK2, MAPKAPK3 = conditions: 5 µM; Lys2; DVKPENLLYTSK
Text: as §1, §2, §3, §4, §5, §6, §7, §8, §9, §10, §11, §12, §13

DLK = target: T10, DLK (Homo sapiens, UniProt Q12852); conditions: Lys2
T10 construct: endogenous in cells; host or cells: PANC-1 lysate
Text: as §1, §2, §3, §4, §5, §6, §7, §8, §9, §10, §11, §12, §13

KSR1, KSR2 = conditions: 5 µM; ATP Loop; SKNVFYDNGK
Text: as §1, §2, §3, §4, §5, §6, §7, §8, §9, §10, §11, §12, §13

EGFR, EGFR-L858R = target: T11, EGFR, EGFR-L858R (Homo sapiens, UniProt P00533)
T11 construct: endogenous in cells; host or cells: PANC-1 lysate
T11 sequence (P00533 25-1210 L858R): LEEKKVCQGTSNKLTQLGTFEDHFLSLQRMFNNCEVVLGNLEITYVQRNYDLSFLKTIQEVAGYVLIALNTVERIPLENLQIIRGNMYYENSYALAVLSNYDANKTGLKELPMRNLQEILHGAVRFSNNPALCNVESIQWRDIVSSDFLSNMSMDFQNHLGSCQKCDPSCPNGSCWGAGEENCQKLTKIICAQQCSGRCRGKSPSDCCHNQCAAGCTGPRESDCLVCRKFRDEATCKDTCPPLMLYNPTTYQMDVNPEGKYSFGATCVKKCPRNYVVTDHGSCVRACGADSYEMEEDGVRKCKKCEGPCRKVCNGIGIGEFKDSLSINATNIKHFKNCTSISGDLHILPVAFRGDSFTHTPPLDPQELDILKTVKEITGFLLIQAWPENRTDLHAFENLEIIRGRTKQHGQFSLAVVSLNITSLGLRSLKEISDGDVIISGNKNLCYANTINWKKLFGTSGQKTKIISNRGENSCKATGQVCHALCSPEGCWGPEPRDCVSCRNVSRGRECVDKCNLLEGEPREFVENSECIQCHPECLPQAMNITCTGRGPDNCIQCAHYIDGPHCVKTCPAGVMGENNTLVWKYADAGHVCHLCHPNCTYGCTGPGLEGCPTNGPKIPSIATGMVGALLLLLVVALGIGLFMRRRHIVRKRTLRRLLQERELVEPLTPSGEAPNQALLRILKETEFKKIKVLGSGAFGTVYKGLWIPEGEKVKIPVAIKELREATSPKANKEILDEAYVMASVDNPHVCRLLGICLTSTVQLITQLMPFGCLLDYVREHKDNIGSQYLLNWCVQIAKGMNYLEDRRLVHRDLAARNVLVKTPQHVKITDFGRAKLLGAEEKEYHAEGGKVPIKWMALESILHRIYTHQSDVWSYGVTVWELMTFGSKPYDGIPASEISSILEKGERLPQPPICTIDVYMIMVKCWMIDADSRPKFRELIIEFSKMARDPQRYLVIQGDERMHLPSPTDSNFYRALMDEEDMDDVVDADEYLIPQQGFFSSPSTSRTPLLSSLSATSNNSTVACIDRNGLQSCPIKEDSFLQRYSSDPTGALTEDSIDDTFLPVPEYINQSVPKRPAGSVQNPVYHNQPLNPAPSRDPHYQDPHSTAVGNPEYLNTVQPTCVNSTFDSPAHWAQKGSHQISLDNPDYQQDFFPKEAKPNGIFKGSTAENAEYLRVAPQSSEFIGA
Text: as §1, §2, §3, §4, §5, §6, §7, §8, §9, §10, §11, §12, §13

IKKb = target: T12, IKKb (Homo sapiens, UniProt O14920)
T12 construct: we opted to conduct a kinome screen (KiNativ) in PANC-1 cell lysates; endogenous in cells; host or cells: PANC-1 cell lysate
T12 sequence (O14920 1-756): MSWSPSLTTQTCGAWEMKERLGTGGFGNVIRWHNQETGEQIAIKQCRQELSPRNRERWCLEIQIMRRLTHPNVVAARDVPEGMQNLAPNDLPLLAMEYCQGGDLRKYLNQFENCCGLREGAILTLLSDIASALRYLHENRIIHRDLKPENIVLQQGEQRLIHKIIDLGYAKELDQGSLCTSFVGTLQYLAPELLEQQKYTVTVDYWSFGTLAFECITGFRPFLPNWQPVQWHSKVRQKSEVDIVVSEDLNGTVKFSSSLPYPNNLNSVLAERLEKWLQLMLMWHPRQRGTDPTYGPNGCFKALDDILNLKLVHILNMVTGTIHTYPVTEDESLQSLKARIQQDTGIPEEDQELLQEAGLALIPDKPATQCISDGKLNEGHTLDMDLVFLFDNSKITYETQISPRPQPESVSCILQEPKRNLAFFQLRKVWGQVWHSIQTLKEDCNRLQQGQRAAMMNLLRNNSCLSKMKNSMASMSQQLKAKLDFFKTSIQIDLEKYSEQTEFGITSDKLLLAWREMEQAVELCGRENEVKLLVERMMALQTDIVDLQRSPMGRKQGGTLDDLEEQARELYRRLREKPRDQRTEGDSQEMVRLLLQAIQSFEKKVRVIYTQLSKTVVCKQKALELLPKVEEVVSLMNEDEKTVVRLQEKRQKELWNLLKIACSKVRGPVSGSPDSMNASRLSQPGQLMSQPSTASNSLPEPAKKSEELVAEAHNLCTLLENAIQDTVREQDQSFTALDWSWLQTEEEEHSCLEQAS
Text: as §1, §2, §3, §4, §5, §6, §7, §8, §9, §10, §11, §12, §13

CK1g2 = target: T13, CK1g2 (Homo sapiens, UniProt P78368); conditions: Lys2
T13 construct: endogenous in cells; host or cells: PANC-1 cell lysate
T13 sequence (P78368 whole entry): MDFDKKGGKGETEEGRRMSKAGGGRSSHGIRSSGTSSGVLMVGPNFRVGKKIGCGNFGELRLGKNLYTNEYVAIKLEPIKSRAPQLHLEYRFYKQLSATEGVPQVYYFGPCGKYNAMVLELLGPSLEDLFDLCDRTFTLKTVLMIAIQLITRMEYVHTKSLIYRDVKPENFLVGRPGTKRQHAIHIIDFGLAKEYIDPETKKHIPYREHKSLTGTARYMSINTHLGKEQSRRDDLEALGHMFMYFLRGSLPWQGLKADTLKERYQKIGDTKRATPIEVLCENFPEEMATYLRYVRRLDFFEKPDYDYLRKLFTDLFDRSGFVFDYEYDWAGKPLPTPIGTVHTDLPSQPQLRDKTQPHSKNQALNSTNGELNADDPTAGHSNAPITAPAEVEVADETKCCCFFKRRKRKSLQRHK
Text: as §1, §2, §3, §4, §5, §6, §7, §8, §9, §10, §11, §12, §13

T1 sequence (P31749 whole entry): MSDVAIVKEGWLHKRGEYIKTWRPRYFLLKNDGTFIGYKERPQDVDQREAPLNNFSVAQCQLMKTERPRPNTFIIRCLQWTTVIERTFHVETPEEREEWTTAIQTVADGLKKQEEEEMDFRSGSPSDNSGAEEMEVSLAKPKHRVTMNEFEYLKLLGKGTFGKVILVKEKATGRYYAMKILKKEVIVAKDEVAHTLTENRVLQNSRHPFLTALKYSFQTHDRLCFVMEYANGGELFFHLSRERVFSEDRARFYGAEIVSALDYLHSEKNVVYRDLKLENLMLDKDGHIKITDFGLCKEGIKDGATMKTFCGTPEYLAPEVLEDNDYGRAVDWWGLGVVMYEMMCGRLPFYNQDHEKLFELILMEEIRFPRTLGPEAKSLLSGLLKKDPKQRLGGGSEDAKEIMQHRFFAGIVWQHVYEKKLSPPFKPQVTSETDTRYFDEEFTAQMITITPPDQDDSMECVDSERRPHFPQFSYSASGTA

`Cn1cc(-c2cnc3ccc(NC(=O)Nc4ccc(F)c(C(F)(F)F)c4)cc3n2)cn1` [51-106, 1-(4-Fluoro-3-(trifluoromethyl)phenyl)-3-(3-(1-methyl-1H-pyrazol-4-yl)quinoxalin-6-yl)urea] was tested, and the inhibition at 5 µM (AKT1) was ≤ 0%, the inhibition at 5 µM (MAP2K5) was 3% and the inhibition at 5 µM (NuaK2) was 2.2%. For the same compound, the inhibition at 5 µM (ULK3) was ≤ 0%, the inhibition at 5 µM (NEK8) was ≤ 0% and the “% Inhibition” value (STLK5; 5 µM, Lys2, SVKASHILISVDGK) was “NB (NB = No Binding (≤ 0))”. The inhibition at 5 µM (STLK5; ATP Loop, […]) was ≤ 0%, the inhibition at 5 µM (Wee1) was 2.2% and the “% Inhibition” value (FER; 5 µM, ATP Loop, QEDGGVYSSSGLKQIPIK) was “NB (NB = No Binding (≤ 0))”. For the same compound, the inhibition at 5 µM (FER; Lys1, […]) was ≤ 0%, the “% Inhibition” value (MARK1, MARK2) was “NB (NB = No Binding (≤ 0))” and the “% Inhibition” value (CDK9; 5 µM, Lys2, DMKAANVLITR) was “NB (NB = No Binding (≤ 0))”. For the same compound, the inhibition at 5 µM (CDK9; ATP Loop, […]) was ≤ 0%, the “% Inhibition” value (MAPKAPK2, MAPKAPK3) was “NB (NB = No Binding (≤ 0))” and the inhibition at 5 µM (DLK) was 5.9%. The “% Inhibition” value (KSR1, KSR2) was 8.8%, the inhibition at 5 µM (EGFR, EGFR-L858R; ATP Loop, LLGAEEKEYHAEGGKVPIK) was ≤ 0% and the inhibition at 5 µM (EGFR, EGFR-L858R; Lys1, IPVAIKELR) was 5.5%. The inhibition at 5 µM (IKKb; Lys1, WHNQETGEQIAIKQCR) was 0.1%, the inhibition at 5 µM (IKKb; Lys2, DLKPENIVLQQGEQR) was ≤ 0% and the “inhibition of IKKβ (in words)” value (IKKb; 5 μM, PANC-1 lysate) was “not inhibited”. For the same compound, the inhibition at 5 µM (CK1g2) was ≤ 0%.
